Series [1] relates to Hep 3B cells. Kind of series: Inhibition of Hep 3B cell proliferation (CellTiter-Glo). The class given is cell-based. The following applies: Homo sapiens, Hep3B. Background: ATP-based viability assays read luminescence as a measure of living cells.
The test system of series [2] is SK-HEP-1 cells. In words: Inhibition of SK-HEP-1 cell proliferation (CellTiter-Glo). The class given is cell-based. The conditions noted are these: Homo sapiens, read-out: SK-HEP-1 IC50. In a few lines:
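Cells seeded and allowed to attach 16–24 h, then exposed to serially diluted compound for 72 h at 37 °C, 5% CO2. Viability read by CellTiter-Glo luminescence; IC50 fitted from inhibition rates across concentrations.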

In series [3] the test system is HuH-7 cells. In words: Inhibition of HuH-7 cell proliferation (CellTiter-Glo). The class given is cell-based. The conditions noted are these: Homo sapiens, read-out: HuH-7 IC50. In outline: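 HuH-7 cells plated and left 16–24 h, then exposed to serially diluted compound for 72 h at 37 °C, 5% CO2. Viability read by CellTiter-Glo luminescence. IC50 obtained by curve fitting of inhibition rates.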

In series [4] the target is FGFR1 kinase (Homo sapiens (Human), UniProt P11362). In words: Enzymologic experiment of FGFR1 (TR-FRET). The class given is biochemical. The conditions noted are these: FGFR1 kinase activity. In outline: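 FGFR1 at 0.1˜5 nM final with substrate peptide 5˜50 nM and ATP 10˜200 μM final, 0.5˜3 h at room temperature. Stopped with EDTA plus labeled antibody for 1 h; TR-FRET signal read at 665 nm, IC50 fitted from inhibition rates.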
Chain of FGFR1 kinase (P11362 22-822): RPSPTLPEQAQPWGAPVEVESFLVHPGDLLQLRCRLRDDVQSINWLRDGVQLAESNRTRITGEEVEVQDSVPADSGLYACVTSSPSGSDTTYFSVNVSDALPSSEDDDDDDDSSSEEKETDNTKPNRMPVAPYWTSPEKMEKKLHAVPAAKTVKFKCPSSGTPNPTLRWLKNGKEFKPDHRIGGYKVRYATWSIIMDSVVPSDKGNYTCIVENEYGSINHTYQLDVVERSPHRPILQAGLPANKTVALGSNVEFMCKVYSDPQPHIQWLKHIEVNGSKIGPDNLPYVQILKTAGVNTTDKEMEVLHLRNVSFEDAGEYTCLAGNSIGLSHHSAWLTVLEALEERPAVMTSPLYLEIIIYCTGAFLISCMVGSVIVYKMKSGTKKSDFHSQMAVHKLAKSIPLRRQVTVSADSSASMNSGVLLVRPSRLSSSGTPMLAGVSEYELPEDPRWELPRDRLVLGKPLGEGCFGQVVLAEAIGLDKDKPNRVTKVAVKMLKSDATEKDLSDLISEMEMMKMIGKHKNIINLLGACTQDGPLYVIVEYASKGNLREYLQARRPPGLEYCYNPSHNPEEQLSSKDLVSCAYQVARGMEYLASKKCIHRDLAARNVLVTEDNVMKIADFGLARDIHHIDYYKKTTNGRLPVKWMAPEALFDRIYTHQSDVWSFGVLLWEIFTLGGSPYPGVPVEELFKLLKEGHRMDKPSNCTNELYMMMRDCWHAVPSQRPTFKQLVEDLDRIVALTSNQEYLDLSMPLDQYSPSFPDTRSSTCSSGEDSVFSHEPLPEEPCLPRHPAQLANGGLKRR
A general note: Time-resolved FRET reads energy transfer from a long-lived donor to a nearby acceptor.

A short description of series [5]: Pharmacokinetic (PK) analysis in rats. The class given is in vivo, Sprague Dawley (SD) rats. The following applies: SD rats, single intragastric administration, 5 mg/kg; for Peak Time tmax: (sampling in hours); for AUC(0-t) / AUC(0-inf) / half-life / MRT / Cmax: Sprague-Dawley, rat, plasma, po; for AUC(0-t): read-out: Area Under Curve AUC0-t; for AUC(0-inf): read-out: Area Under Curve AUC0-∞; for half-life: read-out: Half-Time t1/2 (converted); for MRT: read-out: Mean Residence Time MRT; for Cmax: read-out: Plasma Concentration Cmax. In outline:
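Intravenous blood (0.2 ml) was collected into K2EDTA and centrifuged to obtain plasma. Plasma (40 μL) was protein-precipitated with 160 μL acetonitrile. Compound levels were measured by LC/MS/MS on a C18 column using 0.1% formic acid in water and acetonitrile at 0.8 mL/min.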

Series [6] addresses FGFR4 kinase (Homo sapiens (Human), UniProt P22455). Kind of series: Enzymologic experiment of FGFR4 (TR-FRET). The following applies: FGFR4 kinase activity. The class given is biochemical. As for the experimental part: In this experiment, the inhibitory effect of the compounds on FGFR4 kinase activity was tested by a fluorescence resonance energy transfer (TR-FRET) method, and the half maximal inhibitory concentration (IC50) of the compounds on the FGFR4 kinase activity was determined.
2) 1˜5 μL of diluted solution in gradient of the compound was added.
3) 1˜5 μL of a substrate mixture containing substrate polypeptide with a final concentration of 5˜50 nM and ATP with a final concentration of 10˜200 μM was added.
4) The mixture was incubated for 0.5˜3 hours at room temperature.
5) 10 μL of EDTA and a test solution comprising labeled antibody were added, and the plate was incubated for 1 hour at room temperature.
7) The inhibition rates were calculated according to the fluorescence signal values.

In series [7] the test system is Hep 3B cell line tumor. In words: Pharmacodynamics test in vivo, Hep 3B tumor-bearing nude mice. The conditions noted are these: Mus musculus, Hep3B, oral 30 mg/kg, 2 times/day, read-out: Tumor inhibition rate. As for the experimental part: a, A Hep 3B cell line was taken from the cell bank, and the cells were resuscitated with the MEM culture medium (MEM+10% FBS+1% Glu+1% SP). The cells were placed in the cell culture bottle after resuscitation (cell type, date, and the name of the culturing person were marked on the bottle wall) and were incubated in a CO2 Incubator (the incubator temperature was 37° C., and the CO2 concentration was 5%).
b, The cells were passaged after 80-90% of the bottom of the culture bottle was covered by the cells. After passage, the cells were further incubated in the CO2 incubator. The process was repeated until the number of cells met the pharmacodynamic requirements in vivo.
c, The cultured cells were collected and counted by automatic cell counter. According to the counting results, the cells were resuspended with PBS to prepare a cell suspension (density: 7×10^7/mL), which was placed in the ice box for use.
a, Nude mouse was marked with a disposable universal ear tag for mouse and rat before inoculation, and the skin of the inoculated site was disinfected with 75% medical alcohol.
b, At the time of inoculation, the cell suspension was mixed well, 0.1˜1 mL of cell suspension was taken with a 1 mL syringe, after removing air bubbles, and the syringe was placed on an ice bag for use.
c, The nude mice were inoculated successively (the inoculated site was located on the right shoulder of the right back of the nude mice, and inoculated subcutaneously with 0.1 mL of cell suspension).
a, Tumor was measured on Day 14 to Day 16 after inoculation depending on the tumor growth, and tumor size was calculated.
Tumor volume calculation: tumor volume (mm^3)=length (mm)×width (mm)×width (mm)/2
b, According to the size of the tumor, the mice were grouped by random grouping.
c, According to the results of the grouping, the test drug was administered (administration method: oral administration, administration dose: 30 mg/kg, administration volume: 10 mL/kg, administration frequency: 2 times/day, […], vehicle: 0.5% CMC/1% Tween 80).
d, The tumor was measured and weighed twice a week after the test drug was administrated.
e, Animals were euthanized at the end of the test.

[8] abbreviates: Hep 3B cell proliferation, 72 hours, CellTiter-Glo, read-out: Hep 3B IC50.
The mark [9] stands for this setting: SK-HEP1, SK-HEP-1 cell proliferation, 72 hours, CellTiter-Glo.
The mark [10] stands for this setting: HuH-7 cell proliferation, 72 hours, CellTiter-Glo.
Setting [11] is: 240 h, 10 days of administration.

Where two headings read alike, the source gives them in different places. A value given as a limit tells only on which side of the number the result lay.

Chain of FGFR4 kinase (P22455 22-802): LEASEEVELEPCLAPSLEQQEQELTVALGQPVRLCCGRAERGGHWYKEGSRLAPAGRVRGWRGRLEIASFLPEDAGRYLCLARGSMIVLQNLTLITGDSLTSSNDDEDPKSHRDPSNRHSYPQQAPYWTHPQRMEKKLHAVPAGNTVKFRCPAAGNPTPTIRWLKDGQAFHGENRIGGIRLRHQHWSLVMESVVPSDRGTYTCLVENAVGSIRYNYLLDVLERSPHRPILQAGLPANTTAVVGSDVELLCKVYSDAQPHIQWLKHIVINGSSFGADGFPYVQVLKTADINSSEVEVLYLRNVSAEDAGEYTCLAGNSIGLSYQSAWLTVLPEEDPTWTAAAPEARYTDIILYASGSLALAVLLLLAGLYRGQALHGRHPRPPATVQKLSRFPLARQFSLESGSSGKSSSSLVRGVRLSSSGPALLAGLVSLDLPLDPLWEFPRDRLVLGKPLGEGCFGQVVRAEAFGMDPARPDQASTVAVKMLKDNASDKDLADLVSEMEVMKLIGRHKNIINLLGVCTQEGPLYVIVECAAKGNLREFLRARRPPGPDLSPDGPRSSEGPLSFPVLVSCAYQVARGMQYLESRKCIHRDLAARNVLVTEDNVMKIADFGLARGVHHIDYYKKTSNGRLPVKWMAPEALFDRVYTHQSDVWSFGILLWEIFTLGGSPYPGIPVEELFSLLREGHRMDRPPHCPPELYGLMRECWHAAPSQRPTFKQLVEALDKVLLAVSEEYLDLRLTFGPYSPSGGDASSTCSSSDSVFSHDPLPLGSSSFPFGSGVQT

The term MRT denotes a mean duration of stay, worked out from the concentration-time curve. As to `COc1ccccc1Nc1cc(NC(=O)N2CCCc3cc(CN4CCOCC4=O)c(C=O)nc32)ncc1C#N` [Example 8, N-(5-Cyano-4-((2-methoxyphenyl)amino)pyridin-2-yl)-7-formyl-6-((3-carbonylmorpholino)methyl)-3,4-dihydro-1,8-naphthyridin-1(2H)-carboxamide], the IC50 in series [1] (setting [8]) came to 0.9 nM. The IC50 in series [2] (setting [9]) was above 10000 nM. For the same compound, the IC50 in series [3] (setting [10]) was found to be 8.6 nM. The IC50 in series [4] was above 10000 nM. Besides, in series [5], the Peak Time tmax turned out to be 2 h, the AUC(0-t) is 4790 ng·h/mL, the AUC(0-inf) amounted to 4940 ng·h/mL and the half-life is 1.16 h. In series [5], the MRT came to 3.74 h and the Cmax amounted to 2060 ng/mL. Also, the IC50 in series [6] is 3.4 nM.

For `COCCNc1cc(NC(=O)N2CCCc3cc(CN4CCCCOC4=O)c(C=O)nc32)ncc1C#N` [Example 23, N-(5-Cyano-4-((2-methoxyethyl)amino)pyridin-2-yl)-7-formyl-6-((2-carbonyl-1,3-oxazepin-3-yl)methyl)-3,4-dihydro-1,8-naphthyridin-1(2H)-carboxamide], the IC50 in series [1] (72 h, read-out: Hep 3B IC50, Hep 3B cell proliferation, 72 hours, CellTiter-Glo) is 4.6 nM. In addition, the inhibition in vivo at 30 mg/kg in series [7] (setting [11]) amounted to 89.8%. In addition, the IC50 in series [2] (SK-HEP1, 72 h) is above 10000 nM. Also, the IC50 in series [3] (Huh-7, 72 h) was 6.7 nM. For the same compound, in series [5], the Peak Time tmax came out at 2 h, the AUC(0-t) was 9110 ng·h/mL, the AUC(0-inf) was found to be 9110 ng·h/mL and the half-life was 1.02 h. Also, in series [5], the MRT is 3.5 h and the Cmax turned out to be 2310 ng/mL.

For the compound `COC1(CNc2cc(NC(=O)N3CCCc4cc(CN5CCCOCC5=O)c(C=O)nc43)ncc2C#N)CC1` [Example 25, N-(5-Cyano-4-(((1-methoxycyclopropyl)methyl)amino)pyridin-2-yl)-7-formyl-6-((3-carbonyl-1,4-oxazepin-4-yl)methyl)-3,4-dihydro-1,8-naphthyridin-1(2H)-carboxamide], the inhibition in vivo at 30 mg/kg in series [7] (setting [11]) amounted to 68.4%.

For `COC[C@@H](C)Oc1cc(NC(=O)N2CCCc3cc(CN4CCCOCC4=O)c(C=O)nc32)ncc1C#N` [Example 28, (R)-N-(5-Cyano-4-((1-methoxypropan-2-yl)oxy)pyridin-2-yl)-7-formyl-6-((3-carbonyl-1,4-oxazepin-4-yl)methyl)-3,4-dihydro-1,8-naphthyridin-1(2H)-carboxamide], the inhibition in vivo at 30 mg/kg in series [7] (216 h, 9 days of administration) turned out to be 74.3%.

For the compound `CO[C@H]1COCC1Nc1cc(NC(=O)N2CCCc3cc(CN4C(=O)OCC4C)c(C=O)nc32)ncc1C#N` (stereo partly drawn) [Example 46, N-(5-Cyano-4-trans-(((3,4)-4-methoxytetrahydrofuran-3-yl)amino)pyridin-2-yl) -7-formyl-6-(((S)-4-methyl-2-carbonyloxazolidin-3-yl)methyl)-3,4-dihydro-1,8-naphthyridin-1(2H)-carboxamide], the IC50 in series [1] (setting [8]) stood at 12.7 nM. Further, in series [2] (setting [9]), the IC50 is above 10000 nM. Moreover, in series [3] (setting [10]), the IC50 was 44.4 nM. The same compound registered an IC50 in series [4] above 10000 nM. In addition, in series [5], the Peak Time tmax turned out to be 4 h, the AUC(0-t) worked out at 1530 ng·h/mL, the AUC(0-inf) came to 1530 ng·h/mL and the half-life was 2.55 h. Moreover, in series [5], the mean residence time MRT came to 6.24 h and the Cmax was found to be 1930 ng/mL. This compound also yielded an IC50 in series [6] of 2.93 nM.

`CONc1cc(NC(=O)N2CCCc3cc(CN4CCOCC4=O)c(C=O)nc32)ncc1C#N` [Example 54, N-(5-Cyano-4-(methoxyamino)pyridin-2-yl)-7-formyl-6-((3-carbonylmorpholino)methyl)-3,4-dihydro-1,8-naphthyridine-1(2H)-carboxamide]: the IC50 in series [1] (setting [8]) came to 17.5 nM. Further, the IC50 in series [2] (setting [9]) was above 10000 nM. For the same compound, in series [3] (setting [10]), the IC50 was 24.1 nM. The IC50 in series [4] is above 10000 nM. Moreover, in series [5], the Peak Time tmax stood at 4 h, the AUC(0-t) came to 5530 ng·h/mL, the AUC(0-inf) is 5690 ng·h/mL and the half-life is 0.98 h. Moreover, in series [5], the mean residence time MRT was 3.86 h and the Cmax is 1290 ng/mL. In series [6], the IC50 is 2.77 nM.

Take `CO[C@H]1CCN(c2cc(NC(=O)N3CCCc4cc(CN5CCN(C)CC5=O)c(C=O)nc43)ncc2C#N)C1` [Example 63, (S)-N-(5-Cyano-4-(3-methoxypyrrolidin-1-yl)pyridin-2-yl)-7-formyl-6-((4-methyl-2-carbonylpiperazin-1-yl)methyl)-3,4-dihydro-1,8-naphthyridin-1(2H)-carboxamide]: the IC50 in series [1] (setting [8]) came to 13.8 nM. The IC50 in series [2] (setting [9]) is above 10000 nM. For the same compound, the IC50 in series [3] (setting [10]) amounted to 28.9 nM. The same compound displayed an IC50 in series [4] above 10000 nM. In addition, in series [5], the Peak Time tmax stood at 2 h, the AUC(0-t) was determined as 4990 ng·h/mL, the AUC(0-inf) was 4030 ng·h/mL and the half-life was 0.91 h. In addition, in series [5], the MRT worked out at 2.7 h and the Cmax is 2060 ng/mL. Further, the IC50 in series [6] stood at 2.49 nM.

As for `CO[C@H]1COCC1Nc1cc(NC(=O)N2CCCc3cc(CN4CCOCC4=O)c(C=O)nc32)ncc1C#N` (stereo partly drawn) [Example 66, N-(5-Cyano-4-(((trans)-4-methoxytetrahydrofuran-3-yl)amino)pyridin-2-yl)-7-formyl-6-((3-carbonylmorpholino)methyl)-3,4-dihydro-1,8-naphthyridin-1(2H)-carboxamide], the IC50 in series [1] (setting [8]) was 3.3 nM. Besides, in series [2] (setting [9]), the IC50 was above 10000 nM. Moreover, the IC50 in series [3] (setting [10]) was 11.7 nM. Also, the IC50 in series [4] was above 10000 nM. For the same compound, in series [5], the Peak Time tmax was determined as 4 h, the AUC(0-t) amounted to 2480 ng·h/mL, the AUC(0-inf) was 2540 ng·h/mL and the half-life was 1 h. Besides, in series [5], the mean residence time MRT is 3.6 h and the Cmax was 1880 ng/mL. In series [6], this compound gave an IC50 of 0.97 nM.

Take `CO[C@H]1COCC1Oc1cc(NC(=O)N2CCCc3cc(CN4CCOCC4=O)c(C=O)nc32)ncc1C#N` (stereo partly drawn) [Example 67, N-(5-Cyano-4-(((3,4)-trans-4-methoxytetrahydrofuran-3-yl)oxy)pyridin-2-yl)-7-formyl-6-((3-carbonylmorpholino)methyl)-3,4-dihydro-1,8-naphthyridin-1(2H)-carboxamide]: the IC50 in series [1] (setting [8]) is 16.7 nM. For the same compound, the IC50 in series [2] (setting [9]) is above 10000 nM. For the same compound, in series [3] (setting [10]), the IC50 amounted to 29.5 nM. In series [4], this compound showed an IC50 above 10000 nM. Moreover, in series [5], the Peak Time tmax was 4 h, the AUC(0-t) was found to be 3990 ng·h/mL, the AUC(0-inf) is 4070 ng·h/mL and the half-life was 0.88 h. In series [5], the mean residence time (MRT) was 4.17 h and the Cmax was found to be 2840 ng/mL. In addition, in series [6], the IC50 came to 2.31 nM.

For the origin of these results see patent US11667631B2, “FGFR4 inhibitor, preparation method therefor, and applications thereof” (Jiangsu Hansoh Pharmaceutical Group Co., Ltd., priority 2016, dated 2023).
